How the values were obtained:
Assay type in all cases: biochemical
[1] = target: T1, bc1 (complex III) (Plasmodium falciparum, UniProt Q7HP03+Q8IL75); experiment: spectrophotometric cytochrome c reduction ([…]-542 nm); settings: read-out: Percentage inhibition / bc1 (complex III)
T1 construct: gene PF3D7_MIT02300; native complex in cell-free extract of saponin-freed parasites; decylubiquinol:cytochrome c oxidoreductase activity; with Cytochrome c1, heme protein, mitochondrial
T1 sequence (Q7HP03 1-376): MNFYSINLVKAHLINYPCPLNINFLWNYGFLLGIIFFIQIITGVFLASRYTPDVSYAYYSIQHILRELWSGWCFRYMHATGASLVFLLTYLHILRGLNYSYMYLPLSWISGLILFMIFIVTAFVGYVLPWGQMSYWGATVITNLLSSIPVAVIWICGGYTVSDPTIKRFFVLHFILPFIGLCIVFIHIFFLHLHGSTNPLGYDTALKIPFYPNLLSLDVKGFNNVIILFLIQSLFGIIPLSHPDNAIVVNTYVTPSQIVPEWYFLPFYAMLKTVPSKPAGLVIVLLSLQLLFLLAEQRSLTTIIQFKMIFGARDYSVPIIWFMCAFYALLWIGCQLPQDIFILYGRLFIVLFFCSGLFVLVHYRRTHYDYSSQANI
T1 sequence (Q8IL75 31-355): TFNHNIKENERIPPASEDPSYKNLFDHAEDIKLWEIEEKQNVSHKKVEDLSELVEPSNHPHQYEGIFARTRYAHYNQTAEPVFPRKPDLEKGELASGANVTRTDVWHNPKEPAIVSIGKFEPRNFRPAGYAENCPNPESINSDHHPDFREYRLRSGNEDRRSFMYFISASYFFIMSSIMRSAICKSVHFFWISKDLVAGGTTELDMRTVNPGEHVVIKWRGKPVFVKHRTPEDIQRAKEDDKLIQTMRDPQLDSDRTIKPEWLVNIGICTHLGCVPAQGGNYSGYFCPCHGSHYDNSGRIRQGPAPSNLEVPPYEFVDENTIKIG
T1 sequence (Q8I6U9 1-394 partner): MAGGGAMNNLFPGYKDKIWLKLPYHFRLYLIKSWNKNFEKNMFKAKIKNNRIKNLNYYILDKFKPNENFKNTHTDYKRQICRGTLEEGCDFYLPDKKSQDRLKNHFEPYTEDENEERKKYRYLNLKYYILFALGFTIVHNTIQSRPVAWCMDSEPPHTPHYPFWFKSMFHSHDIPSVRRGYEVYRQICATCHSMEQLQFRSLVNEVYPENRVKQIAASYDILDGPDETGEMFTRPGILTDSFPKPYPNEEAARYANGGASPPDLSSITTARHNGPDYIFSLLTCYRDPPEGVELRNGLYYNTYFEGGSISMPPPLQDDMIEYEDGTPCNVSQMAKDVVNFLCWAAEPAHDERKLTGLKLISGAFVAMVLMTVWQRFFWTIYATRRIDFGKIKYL

[2] = target: T2, PfNDH2 (Plasmodium falciparum, UniProt Q8I302); experiment: spectrophotometric NADH:quinone oxidoreductase assay ([…] and […] nm); settings: read-out: Percentage inhibition / PfNDH2
T2 construct: gene PF3D7_0915000; recombinant, heterologously expressed; Escherichia coli crude membrane preparation
T2 sequence (Q8I302 34-533): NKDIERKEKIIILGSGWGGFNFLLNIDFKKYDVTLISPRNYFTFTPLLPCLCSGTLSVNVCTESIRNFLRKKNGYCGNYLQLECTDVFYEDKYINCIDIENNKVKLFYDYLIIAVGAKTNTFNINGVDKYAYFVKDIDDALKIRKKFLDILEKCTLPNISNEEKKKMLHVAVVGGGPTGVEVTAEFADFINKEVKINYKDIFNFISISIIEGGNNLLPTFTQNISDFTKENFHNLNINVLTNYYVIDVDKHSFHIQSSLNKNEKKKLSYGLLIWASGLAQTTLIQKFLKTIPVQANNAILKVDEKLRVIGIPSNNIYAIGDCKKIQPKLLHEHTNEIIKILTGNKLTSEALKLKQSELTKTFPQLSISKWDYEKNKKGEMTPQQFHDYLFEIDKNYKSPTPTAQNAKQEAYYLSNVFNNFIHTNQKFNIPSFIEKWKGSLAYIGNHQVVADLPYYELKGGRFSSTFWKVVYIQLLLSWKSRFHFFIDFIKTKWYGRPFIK

[3] = target: T3, complex IV (cytochrome c oxidase) (Plasmodium falciparum, UniProt A0A5K1K9G8); experiment: spectrophotometric cytochrome c oxidation; settings: read-out: Percentage inhibition / complex IV
T3 construct: gene PF3D7_MIT02100; native complex in cell-free extract of saponin-freed parasites; cytochrome c oxidase activity; with Cytochrome c oxidase subunit 3
T3 sequence (A0A5K1K9G8 1-508): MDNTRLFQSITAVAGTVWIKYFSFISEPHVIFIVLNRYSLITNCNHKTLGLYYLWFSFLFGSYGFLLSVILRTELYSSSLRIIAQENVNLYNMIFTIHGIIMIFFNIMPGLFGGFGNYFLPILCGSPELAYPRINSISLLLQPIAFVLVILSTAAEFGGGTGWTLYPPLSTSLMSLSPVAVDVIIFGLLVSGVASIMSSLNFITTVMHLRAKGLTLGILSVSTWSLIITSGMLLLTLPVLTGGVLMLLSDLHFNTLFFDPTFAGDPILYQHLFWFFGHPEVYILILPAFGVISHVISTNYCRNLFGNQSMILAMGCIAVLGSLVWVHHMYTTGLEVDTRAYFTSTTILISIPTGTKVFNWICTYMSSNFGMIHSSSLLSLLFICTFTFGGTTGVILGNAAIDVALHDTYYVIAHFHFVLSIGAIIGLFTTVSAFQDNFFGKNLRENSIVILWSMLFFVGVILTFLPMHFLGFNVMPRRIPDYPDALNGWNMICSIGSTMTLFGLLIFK
T3 sequence (Q7HP05 1-279 partner): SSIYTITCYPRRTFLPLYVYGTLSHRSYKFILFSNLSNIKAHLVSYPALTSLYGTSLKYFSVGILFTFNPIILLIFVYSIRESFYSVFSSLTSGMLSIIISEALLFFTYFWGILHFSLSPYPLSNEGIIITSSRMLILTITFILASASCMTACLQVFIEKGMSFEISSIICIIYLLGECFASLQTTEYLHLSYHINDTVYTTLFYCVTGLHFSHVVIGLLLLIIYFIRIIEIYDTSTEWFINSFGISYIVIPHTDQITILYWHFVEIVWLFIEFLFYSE

SMILES	inhibition at 1 µM [1] [%]	inhibition at 1 µM [2] [%]	inhibition at 1 µM [3] [%]
CO[C@H]1O[C@@H]2O[C@@]3(C)CC[C@H]4[C@H](C)CC[C@@H]([C@H]1C)[C@@]24OO3 [Artemether]	1.8 ± 1.9	4.1 ± 3.3	23 ± 2
C[C@@H]1CC[C@H]2[C@@H](C)C(=O)O[C@@H]3O[C@@]4(C)CC[C@@H]1[C@]32OO4 [Artemisinin]	3.2 ± 3.7	17.1 ± 4.2	18.4 ± 4.3
CN1CCN(C2CCN(C(=O)CC3CCC4(CC3)OOC3(OO4)C4CC5CC(C4)CC3C5)CC2)CC1 (stereo not drawn)	23.2 ± 4.2	12.3 ± 4.9	19.1 ± 2
C[C@@H]1CC[C@H]2[C@@H](C)C(O)O[C@@H]3O[C@@]4(C)CC[C@@H]1[C@]32OO4 (stereo partly drawn) [Dihydroartemisinin]	6.7 ± 4.1	5 ± 4.3	21.1 ± 7.9
C[C@H]1[C@H](OC(=O)CCC(=O)O)O[C@@H]2O[C@@]3(C)CC[C@H]4[C@H](C)CC[C@@H]1[C@@]24OO3 [Artesunate]	2.3 ± 0.4	3.7 ± 2.9	21.1 ± 3.9
